Structures can show the parent of a compound that is named as a salt.
Experiments:
C6 = assay: Antiproliferative activity against rat C6 cells assessed as reduction in cell viability after 72 hrs by MTT assay; type: functional, cell-based; conditions: C6, 72 h
U-251 = assay: Antiproliferative activity against human U251 cells assessed as reduction in cell viability after 72 hrs by MTT assay; type: functional, cell-based; conditions: U-251, 72 h
NIH3T3 = assay: Cytotoxicity against mouse 3T3 cells assessed as reduction in cell viability after 72 hrs by MTT assay; type: cell-based; conditions: NIH3T3, 72 h
U-87 MG = assay: Antiproliferative activity against human U87 cells assessed as reduction in cell viability after 72 hrs by MTT assay; type: functional, cell-based, U-87MG ATCC
[1] = Antiproliferative activity against human SHG44 cells assessed as reduction in cell viability after 72 hrs by MTT assay; type: functional, cell-based; conditions: SHG-44, 72 h
U-118-MG = assay: Antiproliferative activity against human U118MG cells assessed as reduction in cell viability after 72 hrs by MTT assay; type: functional, cell-based
SF-126 = assay: Antiproliferative activity against human SF126 cells assessed as reduction in cell viability after 72 hrs by MTT assay; type: functional, cell-based; conditions: SF-126, 72 h
Pyruvate kinase PKM = Pyruvate kinase PKM (Homo sapiens, UniProt P14618); assay: Activation of recombinant human N-terminal 6His-tagged PKM2 expressed in Escherichia coli BL21 cells at 10 uM after 30 mins by fluorescence based analysis relative to control
Pyruvate kinase PKM, sequence (P14618 2-531 limits assumed): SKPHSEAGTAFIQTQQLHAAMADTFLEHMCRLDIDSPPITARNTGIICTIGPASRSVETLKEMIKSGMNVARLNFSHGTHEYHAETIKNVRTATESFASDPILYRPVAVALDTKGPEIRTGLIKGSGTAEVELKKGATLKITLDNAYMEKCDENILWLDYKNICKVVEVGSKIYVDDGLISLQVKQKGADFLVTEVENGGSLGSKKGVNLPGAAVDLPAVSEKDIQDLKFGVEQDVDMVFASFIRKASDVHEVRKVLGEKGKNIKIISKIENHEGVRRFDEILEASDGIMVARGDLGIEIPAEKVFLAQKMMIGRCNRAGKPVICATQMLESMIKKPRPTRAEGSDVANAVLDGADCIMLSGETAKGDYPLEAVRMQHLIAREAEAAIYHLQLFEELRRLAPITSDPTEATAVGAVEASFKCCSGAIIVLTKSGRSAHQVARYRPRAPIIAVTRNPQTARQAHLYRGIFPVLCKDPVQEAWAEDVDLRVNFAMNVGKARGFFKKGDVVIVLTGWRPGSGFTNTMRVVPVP

SMILES	IC50 (U-251)	IC50 (U-87 MG)	fold change (FC) (Pyruvate kinase PKM)	IC50 (C6)	IC50 (NIH3T3)	IC50 [1]	IC50 (U-118-MG)	IC50 (SF-126)
C=C1C(=O)O[C@H]2[C@H]1CC/C(C(=O)OCCOCCOCCOCCOCCOCCOCCOCCOCCOCCOCCOCCOC(=O)/C1=C/CC[C@@]3(C)O[C@H]3[C@H]3OC(=O)C(=C)[C@@H]3CC1)=C\CC[C@@]1(C)O[C@@H]21	> 50 µM	16.2 µM	> 2	> 50 µM	> 50 µM	50.1 µM	17.4 µM	> 50 µM
C=C1C(=O)O[C@H]2[C@H]1CC/C(C(=O)OCCOCCOCCOCCOCCOCCOC(=O)/C1=C/CC[C@@]3(C)O[C@H]3[C@H]3OC(=O)C(=C)[C@@H]3CC1)=C\CC[C@@]1(C)O[C@@H]21	> 50 µM	15.1 µM	> 2	> 50 µM	> 50 µM	> 50 µM	10.6 µM	> 50 µM
C=C1C(=O)O[C@H]2[C@H]1CC/C(C(=O)OCCOCCOCCOCCOCCOCCOCCOCCOCCOCCOCCOCCOCCOCCOCCOCCOCCOCCOC(=O)/C1=C/CC[C@@]3(C)O[C@H]3[C@H]3OC(=O)C(=C)[C@@H]3CC1)=C\CC[C@@]1(C)O[C@@H]21	> 50 µM	> 50 µM	> 2	> 50 µM	> 50 µM	> 50 µM	> 50 µM	> 50 µM
C=C1C(=O)O[C@H]2[C@H]1CC/C(C(=O)OCCOCCOCCOCCOCCOCCOCCOCCOCCOCCOCCOCCOCCOCCOCCOCCOCCOCCOCCOCCOCCOCCOCCOCCOC(=O)/C1=C/CC[C@@]3(C)O[C@H]3[C@H]3OC(=O)C(=C)[C@@H]3CC1)=C\CC[C@@]1(C)O[C@@H]21	> 50 µM	> 50 µM	> 2	> 50 µM	> 50 µM	> 50 µM	> 50 µM	> 50 µM

Second part, led by results:

IC50 (U-251)	IC50 (U-87 MG)	fold change (FC) (Pyruvate kinase PKM)	SMILES	IC50 (C6)	IC50 (NIH3T3)	IC50 [1]	IC50 (U-118-MG)	IC50 (SF-126)
48 µM	0.15 µM		COc1cccc2c1C(=O)c1c(O)c3c(c(O)c1C2=O)C[C@@](O)(C(=O)CO)C[C@@H]3O[C@H]1C[C@H](N)[C@H](O)[C@H](C)O1 [DOXORUBICIN HYDROCHLORIDE]	0.06 µM	0.34 µM	1.84 µM	0.09 µM	0.26 µM
14.1 µM	10.6 µM	> 2	C=C1C(=O)O[C@H]2[C@H]1CC/C(C(=O)OCCOCCOCCOCCOCCOC(=O)/C1=C/CC[C@@]3(C)O[C@H]3[C@H]3OC(=O)C(=C)[C@@H]3CC1)=C\CC[C@@]1(C)O[C@@H]21	4.82 µM	18.8 µM	18.5 µM	7.5 µM	21 µM
65.4 µM	86.3 µM		Cn1c2cc([S+](C)[O-])sc2c2cnn(Cc3cccc(N)c3)c(=O)c21 (centres undefined)	81.8 µM	56.6 µM	49 µM	85 µM	89 µM
